Results taken from paper PMC2771346 (Molecular microbiology, 2009).

Target: ObgE (Escherichia coli, UniProt P42641)
Assay: inhibition of single-turnover GTP hydrolysis, TLC of gamma-32P-GTP
Type: biochemical

Sequence of ObgE (P42641 whole entry): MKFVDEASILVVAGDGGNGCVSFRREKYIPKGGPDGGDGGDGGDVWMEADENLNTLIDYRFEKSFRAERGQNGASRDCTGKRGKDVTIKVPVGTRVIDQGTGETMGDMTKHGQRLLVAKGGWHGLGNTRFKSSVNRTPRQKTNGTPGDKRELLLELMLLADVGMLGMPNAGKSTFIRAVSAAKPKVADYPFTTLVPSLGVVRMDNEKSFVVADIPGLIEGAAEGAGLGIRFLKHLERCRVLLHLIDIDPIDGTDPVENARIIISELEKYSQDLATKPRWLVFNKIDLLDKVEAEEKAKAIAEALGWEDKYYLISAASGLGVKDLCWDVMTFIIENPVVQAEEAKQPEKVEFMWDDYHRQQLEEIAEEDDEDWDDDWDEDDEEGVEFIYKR

Question: For `Nc1nc2c(ncn2[C@@H]2O[C@H](COP(=O)(O)OP(=O)(O)O)[C@@H](O)[C@H]2O)c(=O)[nH]1` [GDP], which Ki is on record?
Answer: Its Ki is 1600 ± 400 nM.
